# System: human CD4+ T cells
# Experiment: Human T cell activation assay (CFSE proliferation, cytokine ELISA)
# Type: cell-based
# Experimental: Enriched human CD4+ T cells and CD8+ T cells were stained with CFSE (1 μM) and stimulated with plate-bound anti-CD3 antibody (3 μg/ml) together with 2, 5, or 10 μg/ml of DD1α-Ig proteins or control Ig proteins. The proliferations of CD4+ T or CD8+ T cells were determined by the percentages of CFSE-labeled CD4+ T or CD8+ T cells at the 72-hour culture. The levels of cytokines IFN-γ and TNF-α in culture supernatant were analyzed by ELISA at the 48-hour culture. […] The proliferation and cytokine production of CD4+ T cells were determined as FIG. 5A. […] The proliferations of CD4+ T cells were determined by percentage of CFSE-diluted CD4+ cells on day 3. The levels of cytokines IFN-γ and IL-2 in culture supernatant were analyzed by ELISA on day 2. […] Data are shown as mean±SD and representative of three experiments.
# The proliferations of CD4^+ T cells were determined by percentage of CFSE-diluted CD4^+ cells on day 3.
# The cytokine production of CD4^+ T cells were then determined IFN-γ and TNF-alpha levels in culture supernatants on day 2 were analyzed by ELISA.
# The amount of Ig protein was kept constant at 10 μg/ml by the addition of control Ig protein. Human CD4+ or CD8+ T cells were purified from freshly isolated PBMCs using CD4+ T Cell Isolation Kit II, human or CD8+ T Cell Isolation Kit, human (Miltenyi Biotec). Mouse CD4+ and CD8+ T cells were purified from splenocytes freshly isolated from mice using CD4+ T Cell Isolation Kit II, mouse or CD8a+ T Cell Isolation Kit II, mouse (Miltenyi Biotec). […] The T cells were labeled with 1 μM CFSE, quenched by cold FBS and incubated in the anti-CD3 & Ig proteins-coated plates. On day 2 after stimulation, supernatant was collected and cytokines were assayed by ELISA. On day 3, cells were stained with anti-CD4-APC (OKT4, eBioscience for human CD4+ T cells; RM4-5, eBioscience for mouse CD4+ T cells) or anti-CD8-APC (SK1, eBioscience for human CD8+ T cells; 53-6.7, eBioscience for mouse CD8+ T cells) and then analyzed for CFSE dilution by flow cytometry.
substance,measurement,setting,value
DD1α-Ig: the extracellular region of DD1α fused with the immunoglobulin G Fc segment,T cell activation-induced production of IFN-γ and TNF-α,"human CD4+ and CD8+ T cells, ELISA of culture supernatant",clearly blocked
same,proliferation of human CD4+ T cells,"plate-bound anti-CD3 3 μg/ml, CFSE, Ig control 92.2%",47.1%
same,inhibition of anti-CD3-stimulated human CD4+ T cell proliferation,"plate-bound anti-CD3 3 μg/ml, CFSE, relative to Ig control (92.2% proliferation)",~45%
same,CD4+ T cell proliferation stimulated by anti-CD3,various concentrations with 3 μg/ml anti-CD3,strongly inhibited

# From US20170184604A1, “DD1ALPHA RECEPTOR AND USES THEREOF IN IMMUNE DISORDERS” (THE GENERAL HOSPITAL CORPORATION, priority 2014, published 2017)
